Measurements from ChEMBL document CHEMBL3044903, “Synthesis and Herbicidal Activity of Novel 3-Alkoxycarbonyl-3-aryl-2,3-dihydro-2-oxo-1H-pyrrole Derivatives” (J Pestic Sci, 2004).

Columns and labels:
Oryza sativa [1] = assay: Phytotoxicity against two-leaf stage Oryza sativa cv. Nipponbare (rice) planted zero cm depth at 5.0 g a.i/a measured after 3 weeks; type: organism-based; settings: in vivo, 504 h
[2] = tested on: Schoenoplectiella juncoides; assay: Post-emergence herbicide activity against Schoenoplectiella juncoides under greenhouse condition at 10 g a.i/a treated at one-leaf stage measured after 3 weeks; type: functional
Echinochloa oryzicola [3] = assay: Post-emergence herbicide activity against Echinochloa oryzicola under greenhouse condition at 1 g a.i/a treated at one-leaf stage measured after 3 weeks; type: functional
Oryza sativa [4] = assay: Phytotoxicity against two-leaf stage Oryza sativa cv. Nipponbare (rice) planted 2 cm depth at 1 g a.i/a measured after 3 weeks; type: organism-based; settings: in vivo, other, 504 h
Echinochloa oryzicola [5] = assay: Pre-emergence herbicide activity against Echinochloa oryzicola under greenhouse condition at 1 g a.i/a measured after 3 weeks; type: functional
Echinochloa oryzicola [6] = assay: Herbicidal activity against Echinochloa oryzicola at 2.5 g a.i/a treated at 2.5 leaf stage measured after 3 weeks; type: functional
Echinochloa oryzicola [7] = assay: Herbicidal activity against Echinochloa oryzicola at 1 g a.i/a treated at 2.5 leaf stage measured after 3 weeks; type: functional
Echinochloa oryzicola [8] = assay: Herbicidal activity against Echinochloa oryzicola at 5.0 g a.i/a treated at 2.5 leaf stage measured after 3 weeks; type: functional
Oryza sativa [9] = assay: Phytotoxicity against two-leaf stage Oryza sativa cv. Nipponbare (rice) planted 2 cm depth assessed as crop injury at 4 g a.i/a followed by leaching of irrigation water for 3 days measured after 3 weeks post-treatment; type: organism-based; settings: in vivo, other, 504 h
Echinochloa oryzicola [10] = assay: Herbicidal activity against Echinochloa oryzicola at 5.0 g a.i/a treated at 1.5 leaf stage measured after 3 weeks; type: functional
[11] = tested on: Schoenoplectiella juncoides; assay: Pre-emergence herbicide activity against Schoenoplectiella juncoides under greenhouse condition at 10 g a.i/a measured after 3 weeks; type: functional
Echinochloa oryzicola [12] = assay: Herbicidal activity against Echinochloa oryzicola at 1 g a.i/a treated at 1.5 leaf stage measured after 3 weeks; type: functional
Echinochloa oryzicola [13] = assay: Pre-emergence herbicide activity against Echinochloa oryzicola under greenhouse condition at 10 g a.i/a measured after 3 weeks; type: functional
[14] = tested on: Schoenoplectiella juncoides; assay: Post-emergence herbicide activity against Schoenoplectiella juncoides under greenhouse condition at 1 g a.i/a treated at one-leaf stage measured after 3 weeks; type: functional
[15] = tested on: Schoenoplectiella juncoides; assay: Pre-emergence herbicide activity against Schoenoplectiella juncoides under greenhouse condition at 1 g a.i/a measured after 3 weeks; type: functional
Echinochloa oryzicola [16] = assay: Post-emergence herbicide activity against Echinochloa oryzicola under greenhouse condition at 10 g a.i/a treated at one-leaf stage measured after 3 weeks; type: functional
Echinochloa oryzicola [17] = assay: Herbicidal activity against Echinochloa oryzicola at 2.5 g a.i/a treated at 1.5 leaf stage measured after 3 weeks; type: functional
Oryza sativa [18] = assay: Phytotoxicity against two-leaf stage Oryza sativa cv. Nipponbare (rice) planted 2 cm depth at 5.0 g a.i/a measured after 3 weeks; type: organism-based; settings: in vivo, 504 h
Oryza sativa [19] = assay: Phytotoxicity against two-leaf stage Oryza sativa cv. Nipponbare (rice) planted 2 cm depth assessed as crop injury at 2 g a.i/a followed by leaching of irrigation water for 3 days measured after 3 weeks post-treatment; type: organism-based; settings: in vivo, other, 504 h
Oryza sativa [20] = assay: Phytotoxicity against two-leaf stage Oryza sativa cv. Nipponbare (rice) planted zero cm depth at 1 g a.i/a measured after 3 weeks; type: organism-based; settings: in vivo, other, 504 h
Oryza sativa [21] = assay: Phytotoxicity against two-leaf stage Oryza sativa cv. Nipponbare (rice) planted zero cm depth at 2.5 g a.i/a measured after 3 weeks; type: organism-based; settings: in vivo, other, 504 h
Oryza sativa [22] = assay: Phytotoxicity against two-leaf stage Oryza sativa cv. Nipponbare (rice) planted 2 cm depth at 2.5 g a.i/a measured after 3 weeks; type: organism-based; settings: in vivo, 504 h

SMILES	Activity (Oryza sativa [1])	Activity [2]	Activity (Echinochloa oryzicola [3])	Activity (Echinochloa oryzicola [5])	Activity (Echinochloa oryzicola [6])	Activity (Echinochloa oryzicola [7])	Activity (Echinochloa oryzicola [8])	Activity (Echinochloa oryzicola [10])	Activity [11]	Activity (Echinochloa oryzicola [12])	Activity (Echinochloa oryzicola [13])	Activity [14]	Activity [15]	Activity (Echinochloa oryzicola [16])	Activity (Echinochloa oryzicola [17])	Activity (Oryza sativa [18])	Activity (Oryza sativa [21])	Activity (Oryza sativa [22])	other results
COC(=O)C1(c2ccccc2F)C(=O)N(C(C)(C)c2cc(Cl)cc(Cl)c2)C=C1C (stereo unspecified)	30%	87.6%	100%	100%	90%	80%	100%	100%	100%	99%	100%	0.1%	0.1%	100%	99%	0%	5%	0%	Activity (Oryza sativa [4]): 0%; Activity (Oryza sativa [9]): 20%; Activity (Oryza sativa [19]): 0%; Activity (Oryza sativa [20]): 0%
COC(=O)C1(c2ccccc2)C(=O)N(C(C)(C)c2cc(Cl)cc(Cl)c2)C=C1C#N (stereo unspecified)	–	0.1%	0%	0%	–	–	–	–	87.6%	–	100%	0%	0%	0%	–	–	–	–	–
COC(=O)C1(c2ccccc2)C(=O)N(C(C)(C)c2cc(Cl)cc(Cl)c2)C=C1C(F)F (stereo unspecified)	–	50.1%	0%	0%	–	–	–	–	87.6%	–	100%	0%	0%	87.6%	–	–	–	–	–
CC1=CN(C(C)(C)c2cc(Cl)cc(Cl)c2)C(=O)C1(C(=O)OCc1ccccc1)c1ccccc1 (stereo unspecified)	–	0%	50.1%	0%	–	–	–	–	0%	–	100%	0%	0%	100%	–	–	–	–	–
COCC1=CN(C(C)(C)c2cc(Cl)cc(Cl)c2)C(=O)C1(C(=O)OC)c1ccccc1 (stereo unspecified)	98%	87.6%	75.1%	100%	65%	–	98%	100%	100%	–	100%	87.6%	50.1%	100%	99%	0%	30%	0%	–
COC(=O)C1(c2ccccc2)C(=O)N(C(C)(C)c2cc(Cl)cc(Cl)c2)C=C1C=O (stereo unspecified)	–	87.6%	0%	100%	–	–	–	–	100%	–	100%	50.1%	50.1%	87.6%	–	–	–	–	–
COC(=O)C1(c2ccccc2)C(=O)N(C(C)(C)c2cc(Cl)nc(Cl)c2)C=C1C (stereo unspecified)	80%	87.6%	50.1%	100%	90%	50%	98%	99%	100%	75%	100%	87.6%	100%	100%	99%	0%	70%	0%	Activity (Oryza sativa [4]): 0%; Activity (Oryza sativa [20]): 30%
COC(=O)C1(c2ccccc2)C(=O)N(C(C)(C)c2cccc(Cl)n2)C=C1C (stereo unspecified)	–	87.6%	0%	100%	–	–	–	–	100%	–	100%	87.6%	100%	87.6%	–	–	–	–	–
COC(=O)C1(c2ccccc2)C(=O)N(C(C)(C)c2cc(Cl)cc(Cl)c2)C=C1CO (stereo unspecified)	65%	87.6%	87.6%	100%	75%	30%	99%	99%	100%	97%	100%	87.6%	87.6%	100%	99%	0%	60%	0%	Activity (Oryza sativa [4]): 0%; Activity (Oryza sativa [20]): 0%
COC(=O)C1(c2ccccc2)C(=O)N(C(C)(C)c2cc(Cl)cc(Cl)c2)C=C1COC(C)=O (stereo unspecified)	–	87.6%	0.1%	75.1%	–	–	–	–	100%	–	100%	0.1%	0%	100%	–	–	–	–	–
C=C1CN(C(C)(C)c2cc(Cl)cc(Cl)c2)C(=O)C1(C(=O)OC)c1ccccc1 (stereo unspecified)	99%	–	–	–	99%	40%	99%	100%	–	99%	–	–	–	–	99%	0%	95%	0%	Activity (Oryza sativa [4]): 0%; Activity (Oryza sativa [20]): 70%
COC(=O)C1(c2ccccc2)C(=O)N(C(C)(C)c2cccc(Cl)c2)C=C1C (stereo unspecified)	98%	87.6%	50.1%	100%	90%	40%	99%	100%	100%	99%	100%	87.6%	50.1%	100%	100%	0%	95%	0%	Activity (Oryza sativa [4]): 0%; Activity (Oryza sativa [20]): 80%
C=C1CN(C(C)(C)c2cc(Cl)cc(Cl)c2)C(=O)C1(C(=O)OC)c1ccccc1F (stereo unspecified)	98%	–	–	–	95%	65%	95%	99%	–	99%	–	–	–	–	99%	0%	80%	0%	–
CC1=C(c2ccccc2)C(=O)N(C(C)(C)c2cc(Cl)cc(Cl)c2)C1	98%	87.6%	87.6%	100%	95%	40%	98%	98%	100%	60%	100%	75.1%	100%	100%	95%	0%	90%	0%	–
COC(=O)C1(c2ccccc2)C(=O)N(C(C)(C)c2cc(F)cc(F)c2)C=C1C (stereo unspecified)	–	87.6%	50.1%	75.1%	–	–	–	–	100%	–	100%	87.6%	100%	100%	–	–	–	–	–
COC(=O)C1(c2ccccc2)C(=O)N(C(C)(C)c2cc(Cl)cc(Cl)c2)C=C1/C=N/O (stereo unspecified)	–	0.1%	0%	0%	–	–	–	–	75.1%	–	100%	0%	0%	0.1%	–	–	–	–	–
COC(=O)C1(c2ccccc2)C(=O)N(C(C)(C)c2ccc3ccccc3c2)C=C1C (stereo unspecified)	–	87.6%	0.1%	87.6%	–	–	–	–	87.6%	–	100%	0%	0%	100%	–	–	–	–	–
CCOC(=O)C1(c2ccccc2)C(=O)N(C(C)(C)c2cc(Cl)cc(Cl)c2)C=C1C (stereo unspecified)	–	75.1%	87.6%	100%	–	–	–	–	100%	–	100%	0%	75.1%	100%	–	–	–	–	–
COC(=O)C1(c2ccccc2)C(=O)N(C(C)(C)c2cnc3ccccc3c2)C=C1C (stereo unspecified)	–	87.6%	0%	100%	–	–	–	–	100%	–	100%	0%	50.1%	100%	–	–	–	–	–
